Measured values published in patent US6770597B2, “Benzohydrazide derivatives as herbicides and desiccant compositions containing them” (Ishihara Sangyo Kaisha, Ltd., priority 2002, dated 2004).

How the values were obtained:
Format in all cases: in vivo
[1] = test system: upland rice (Oryza sp., var.Cocodrie, RICE); assay: Greenhouse herbicide screen, post-emerge application, crop damage rating; conditions: POST emergent, 14 days after application, scale 0-100
Description: (§1) A standard greenhouse herbicide activity screening system was used to evaluate the herbicidal efficacy and crop safety of these test compounds. Seven broadleaf weed species including redroot pigweed (Amaranthus retrofiexus, AMARE), velvetleaf (Abutilon theophrasti, ABUTH), sicklepod (Cassia obtusifolia, CASOB), ivyleaf morningglory (Ipomoea hederacea, IPOHE), lambsquarters (Chenopodium album, CHEAL), common ragweed (Ambrosia artemisiifolia L., AMBEL), and cocklebur (Xanthium strumarium, XANST) were used as test species. Four grass weed species including green foxtail (Setaria viridis, SETVI), barnyardgrass (Echinochloa crus-galli, ECHCG), johnsongrass (Sorghum halepense, SORHA), and large crabgrass (Digitaria sanguinalis, DIGSA) were also used. In addition, four crop species, field corn (Zea mays L., var. Dekalb 535, CORN), soybean (Glycine max L., var. Pella 86, SOY), upland rice (Oryza sp., var.Cocodrie, RICE) and wheat (Triticum aestivum L.) were included.
(§2) All plants were grown in 10 cm square plastic pots which were filled with a sandy loam soil mix. For pre-emerge tests, seeds were planted one day prior to application of the test compounds. For post-emerge tests, seeds were planted 8-21 days prior to the test to allow emergence and good foliage development prior to application of the test substances. At the time of the post-emerge application, plants of all species were usually at the 2-3 leaf stage of development.
(§3) All test compounds were dissolved in acetone and applied to the test units in a volume of 187 l/ha. Test materials were applied at rates ranging from 15 g ai/ha to 1000 g ai/ha using a track sprayer equipped with a TJ8001E even flow flat fan spray nozzle. Plants were arranged on a shelf so that the top of the canopy (post-emerge) or top of the soil surface (pre-emerge) was 40-45 cm below the nozzle. Pressurized air was used to force the test solution through the nozzle as it was mechanically advanced (via electrically driven chain drive) over the top of all test plants/pots. This application simulates a typical commercial field herbicide application.
(§4) Pre-emergence tests were top watered immediately after treatment to incorporate the test materials, then routinely top-watered for normal growth. Post-emerge test units were always bottom-watered.
(§5) At 14 days after application of the test materials, phytotoxicity ratings were recorded. A rating scale of 0-100 was used as previously described in Research Methods in Weed Science, 2nd edition, B. Truelove, Ed., Southern Weed Science Society, Auburn University, Auburn, Ala., 1977. Briefly, “0” corresponds to no damage and “100” corresponds to complete death of all plants in the test unit. This scale was used both to determine efficacy against weed species and damage to crop species. Herbicide activity data for various compounds of this invention, which are shown by compound No. in Tables 1-12, are shown in Tables 13 and 14.

[2] = test system: field corn (Zea mays L., var. Dekalb 535, CORN); assay: as above; conditions: POST emergent, 14 days after application, scale 0-100
Description: as §1, §2, §3, §4, §5

[3] = test system: johnsongrass (Sorghum halepense, SORHA); assay: Greenhouse herbicide screen, pre-emerge application, phytotoxicity rating; conditions: PRE emergent, 14 days after application, rating scale 0-100
Method in brief: (§6)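 Greenhouse pot test with soil-applied or foliar track-sprayer treatment at 15–1000 g ai/ha from acetone solution. Injury, from none (0) to total kill (100), was recorded 14 days after application.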

[4] = test system: velvetleaf (Abutilon theophrasti, ABUTH); assay: as above; conditions: PRE emergent, 14 days after application, rating scale 0-100
Method in brief: as §6

[5] = test system: common ragweed (Ambrosia artemisiifolia L., AMBEL); assay: as above; conditions: PRE emergent, 14 days after application, rating scale 0-100
Method in brief: as §6

[6] = test system: barnyardgrass (Echinochloa crus-galli, ECHCG); assay: as above; conditions: PRE emergent, 14 days after application, rating scale 0-100
Method in brief: as §6

[7] = test system: sicklepod (Cassia obtusifolia, CASOB); assay: as above; conditions: PRE emergent, 14 days after application, rating scale 0-100
Method in brief: as §6

[8] = test system: lambsquarters (Chenopodium album, CHEAL); assay: as above; conditions: PRE emergent, 14 days after application, rating scale 0-100
Method in brief: as §6

[9] = test system: ivyleaf morningglory (Ipomoea hederacea, IPOHE); assay: as above; conditions: PRE emergent, 14 days after application, rating scale 0-100
Method in brief: as §6

[10] = test system: green foxtail (Setaria viridis, SETVI); assay: as above; conditions: PRE emergent, 14 days after application, rating scale 0-100
Method in brief: as §6

[11] = test system: cocklebur (Xanthium strumarium, XANST); assay: as above; conditions: PRE emergent, 14 days after application, rating scale 0-100
Method in brief: as §6

[12] = test system: redroot pigweed (Amaranthus retrofiexus, AMARE); assay: as above; conditions: PRE emergent, 14 days after application, rating scale 0-100
Method in brief: as §6

[13] = test system: large crabgrass (Digitaria sanguinalis, DIGSA); assay: as above; conditions: PRE emergent, 14 days after application, rating scale 0-100
Method in brief: as §6

[14] = test system: johnsongrass (Sorghum halepense, SORHA); assay: Greenhouse herbicide screen, post-emerge application, phytotoxicity rating; conditions: POST emergent, 14 days after application, scale 0-100
Method in brief: as §6

[15] = test system: velvetleaf (Abutilon theophrasti, ABUTH); assay: as above; conditions: POST emergent, 14 days after application, scale 0-100
Method in brief: as §6

[16] = test system: common ragweed (Ambrosia artemisiifolia L., AMBEL); assay: as above; conditions: POST emergent, 14 days after application, scale 0-100
Method in brief: as §6

[17] = test system: barnyardgrass (Echinochloa crus-galli, ECHCG); assay: as above; conditions: POST emergent, 14 days after application, scale 0-100
Method in brief: as §6

[18] = test system: sicklepod (Cassia obtusifolia, CASOB); assay: as above; conditions: POST emergent, 14 days after application, scale 0-100
Method in brief: as §6

[19] = test system: lambsquarters (Chenopodium album, CHEAL); assay: as above; conditions: POST emergent, 14 days after application, scale 0-100
Method in brief: as §6

[20] = test system: ivyleaf morningglory (Ipomoea hederacea, IPOHE); assay: as above; conditions: POST emergent, 14 days after application, scale 0-100
Method in brief: as §6

[21] = test system: green foxtail (Setaria viridis, SETVI); assay: as above; conditions: POST emergent, 14 days after application, scale 0-100
Method in brief: as §6

[22] = test system: cocklebur (Xanthium strumarium, XANST); assay: as above; conditions: POST emergent, 14 days after application, scale 0-100
Method in brief: as §6

[23] = test system: redroot pigweed (Amaranthus retrofiexus, AMARE); assay: as above; conditions: POST emergent, 14 days after application
Method in brief: as §6

[24] = test system: large crabgrass (Digitaria sanguinalis, DIGSA); assay: as above; conditions: POST emergent, 14 days after application, scale 0-100
Method in brief: as §6

[25] = test system: upland rice (Oryza sp., var.Cocodrie, RICE); assay: Greenhouse herbicide screen, pre-emerge application, crop damage rating; conditions: PRE emergent, 14 days after application, rating scale 0-100
Description: as §1, §2, §3, §4, §5

[26] = test system: field corn (Zea mays L., var. Dekalb 535, CORN); assay: as above; conditions: PRE emergent, 14 days after application, rating scale 0-100
Description: as §1, §2, §3, §4, §5

Q: `CN(C)NC(=O)c1cc(-n2c(=O)cc(C(F)(F)F)n(C)c2=O)ccc1Cl` [Compound 1-4] was tested. Which “crop damage rating RICE” value ([1]; 63 g ai/ha) did it give?
A: 10

Q: And the “crop damage rating RICE” value ([1]; 250 g ai/ha)?
A: 65

Q: And the “crop damage rating CORN” value ([2]; 63 g ai/ha)?
A: 65

Q: What about the “crop damage rating CORN” value ([2]; 250 g ai/ha) of the same compound?
A: 99

Q: And the “phytotoxicity rating SORHA” value ([3]; 63 g ai/ha)?
A: 0

Q: What about the “phytotoxicity rating SORHA” value ([3]; 250 g ai/ha) of the same compound?
A: 35

Q: And the “phytotoxicity rating ABUTH” value ([4]; 63 g ai/ha)?
A: 30

Q: And the “phytotoxicity rating ABUTH” value ([4]; 250 g ai/ha)?
A: 99

Q: What about the “phytotoxicity rating AMBEL” value ([5]; 63 g ai/ha) of the same compound?
A: 0

Q: And the “phytotoxicity rating AMBEL” value ([5]; 250 g ai/ha)?
A: 40

Q: What about the “phytotoxicity rating ECHCG” value ([6]; 63 g ai/ha) of the same compound?
A: 0

Q: And the “phytotoxicity rating ECHCG” value ([6]; 250 g ai/ha)?
A: 40

Q: And the “phytotoxicity rating CASOB” value ([7]; 63 g ai/ha)?
A: 0

Q: And the “phytotoxicity rating CASOB” value ([7]; 250 g ai/ha)?
A: 90

Q: And the “phytotoxicity rating CHEAL” value ([8]; 63 g ai/ha)?
A: 15

Q: What about the “phytotoxicity rating CHEAL” value ([8]; 250 g ai/ha) of the same compound?
A: 100

Q: What about the “phytotoxicity rating IPOHE” value ([9]; 63 g ai/ha) of the same compound?
A: 75

Q: What about the “phytotoxicity rating IPOHE” value ([9]; 250 g ai/ha) of the same compound?
A: 100

Q: And the “phytotoxicity rating SETVI” value ([10]; 63 g ai/ha)?
A: 0

Q: And the “phytotoxicity rating SETVI” value ([10]; 250 g ai/ha)?
A: 35

Q: What about the “phytotoxicity rating XANST” value ([11]; 63 g ai/ha) of the same compound?
A: 0

Q: What about the “phytotoxicity rating XANST” value ([11]; 250 g ai/ha) of the same compound?
A: 60

Q: And the “phytotoxicity rating AMARE” value ([12]; 63 g ai/ha)?
A: 40

Q: What about the “phytotoxicity rating AMARE” value ([12]; 250 g ai/ha) of the same compound?
A: 95

Q: What about the “phytotoxicity rating DIGSA” value ([13]; 63 g ai/ha) of the same compound?
A: 0

Q: And the “phytotoxicity rating DIGSA” value ([13]; 250 g ai/ha)?
A: 60

Q: And the “phytotoxicity rating SORHA” value ([14]; 63 g ai/ha)?
A: 50

Q: What about the “phytotoxicity rating SORHA” value ([14]; 250 g ai/ha) of the same compound?
A: 80

Q: What about the “phytotoxicity rating ABUTH” value ([15]; 63 g ai/ha) of the same compound?
A: 100

Q: And the “phytotoxicity rating ABUTH” value ([15]; 250 g ai/ha)?
A: 100

Q: What about the “phytotoxicity rating AMBEL” value ([16]; 63 g ai/ha) of the same compound?
A: 80

Q: What about the “phytotoxicity rating AMBEL” value ([16]; 250 g ai/ha) of the same compound?
A: 100

Q: What about the “phytotoxicity rating ECHCO” value ([17]; 63 g ai/ha) of the same compound?
A: 65

Q: What about the “phytotoxicity rating ECHCO” value ([17]; 250 g ai/ha) of the same compound?
A: 95

Q: And the “phytotoxicity rating CASOB” value ([18]; 63 g ai/ha)?
A: 70

Q: And the “phytotoxicity rating CASOB” value ([18]; 250 g ai/ha)?
A: 80

Q: What about the “phytotoxicity rating CHEAL” value ([19]; 63 g ai/ha) of the same compound?
A: 99

Q: What about the “phytotoxicity rating CHEAL” value ([19]; 250 g ai/ha) of the same compound?
A: 100

Q: What about the “phytotoxicity rating IPOHE” value ([20]; 63 g ai/ha) of the same compound?
A: 100

Q: What about the “phytotoxicity rating IPOHE” value ([20]; 250 g ai/ha) of the same compound?
A: 100

Q: What about the “phytotoxicity rating SETVI” value ([21]; 63 g ai/ha) of the same compound?
A: 65

Q: What about the “phytotoxicity rating SETVI” value ([21]; 250 g ai/ha) of the same compound?
A: 75

Q: And the “phytotoxicity rating XANST” value ([22]; 63 g ai/ha)?
A: 100

Q: What about the “phytotoxicity rating XANST” value ([22]; 250 g ai/ha) of the same compound?
A: 100

Q: What about the “phytotoxicity rating AMARE” value ([23]; 63 g ai/ha, scale 0-100 (0 no damage, 100 complete death)) of the same compound?
A: 100

Q: And the “phytotoxicity rating AMARE” value ([23]; 250 g ai/ha, scale 0-100)?
A: 100

Q: What about the “phytotoxicity rating DIGSA” value ([24]; 63 g ai/ha) of the same compound?
A: 35

Q: What about the “phytotoxicity rating DIGSA” value ([24]; 250 g ai/ha) of the same compound?
A: 55

Q: What about the “crop damage rating RICE” value ([25]; 63 g ai/ha) of the same compound?
A: 0

Q: And the “crop damage rating RICE” value ([25]; 250 g ai/ha)?
A: 8

Q: And the “crop damage rating CORN” value ([26]; 63 g ai/ha)?
A: 35

Q: And the “crop damage rating CORN” value ([26]; 250 g ai/ha)?
A: 75
